Test results from patent US20140090094A1, “MODULATORS OF SLC22A7” (BAYER INTELLECTUAL PROPERTY GmbH, priority 2011, published 2014).
Where “and” joins values, the source holds several entries; their conditions need not be identical. Equal entries are not always repeated.

Key:
OAT2h = molecular target: T1, OAT2h (Homo sapiens, UniProt Q9Y694); assay: 1 min uptake into 293 cells expressing OAT2 from human; type: cell-based; settings: for clearance: 1 min uptake, 0.1 μmol/l radiotracer
T1 construct: expressed in transfected cells; host or cells: 293 cells (HEK-293), pEBTetD/OAT2h, doxycycline-inducible
T1 sequence (Q9Y694 1-546 isoform Q9Y694-2): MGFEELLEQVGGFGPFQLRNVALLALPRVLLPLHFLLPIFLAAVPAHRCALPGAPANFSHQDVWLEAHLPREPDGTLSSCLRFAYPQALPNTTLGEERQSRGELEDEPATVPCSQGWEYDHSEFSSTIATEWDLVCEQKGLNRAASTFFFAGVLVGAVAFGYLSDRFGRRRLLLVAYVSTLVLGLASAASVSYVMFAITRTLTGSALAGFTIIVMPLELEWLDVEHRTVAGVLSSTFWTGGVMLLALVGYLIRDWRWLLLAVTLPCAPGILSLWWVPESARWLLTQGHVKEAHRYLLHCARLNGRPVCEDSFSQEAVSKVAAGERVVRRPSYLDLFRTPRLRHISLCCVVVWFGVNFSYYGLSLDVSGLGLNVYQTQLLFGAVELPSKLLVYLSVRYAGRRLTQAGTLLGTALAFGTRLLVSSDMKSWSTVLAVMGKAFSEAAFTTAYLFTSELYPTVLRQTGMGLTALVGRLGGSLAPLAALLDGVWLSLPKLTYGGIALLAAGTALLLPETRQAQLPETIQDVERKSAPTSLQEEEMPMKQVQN
Method: (§1) Cells were used for uptake experiments at a confluence of at least 70%. Uptake was measured at 37° C. […] After preincubation for at least 20 minutes in 4 ml of uptake buffer, the buffer was replaced with 2 ml of substrate in uptake buffer. The total substrate concentration if not indicated otherwise was 0.1 μmol/l for radiotracer assays and 10 μmol/l for unlabeled compounds. Incubation was stopped after 1 min by rinsing the cells four times each with 4 ml ice-cold uptake buffer. Radioactivity was determined, after cell lysis with 0.1% v/v Triton X-100 in 5 mmol/l TRIS-HCl pH 7.4, by liquid scintillation counting. For LCelectrospray ionization-MS/MS analysis, cells were lysed with methanol and stored at −20° C.
(§2) After centrifugation (1 min, 16000×g, 20° C.) of thawed lysates, 100 μl of the supernatant was mixed with either 10 μl unlabeled MPP+ iodide (0.5 ng/μl) or biphenyl-4-carboxylic acid (Sigma-Aldrich) as internal standard. […] Atmospheric pressure ionization with positive or negative electrospray was used. For quantification (scan time 150 ms), the optimal collision energy for argon-induced fragmentation in the second quadrupole was determined for each analyte. […] Linear calibration curves were constructed from at least six standards which were prepared using control cell lysates as solvent. Sample analyte content was calculated from the analyte response ratio and the slope of the calibration curve, obtained by linear regression. With LC-MS quantitation, solute content of cell lysates was determined for 4 conditions (paired dishes, incubation time 1 min): a) transporter expression on, uptake buffer; b) expression off, uptake buffer; c) expression on, substrate in uptake buffer; d) expression off, substrate in uptake buffer. Acute uptake mediated by heterologously expressed carrier was then calculated as (c−a)−(d−b). This approach takes into account endogenous solute content and non-specific uptake. Protein was measured by the BCA assay (Pierce) with bovine serum albumin as standard. The protein content of MS samples was estimated from 3 matched cell dishes.

OAT2r = molecular target: T2, OAT2r (Rattus norvegicus, UniProt Q5RLM2); assay: 1 min uptake into 293 cells expressing OAT2 from rat; type: cell-based; settings: for clearance: 1 min uptake, 0.1 μmol/l radiotracer; for uptake after preloading with orotic acid (factor f): 1 h preincubation ±100 μmol/l unlabeled orotic acid, 3H-orotic acid 0.1 μmol/l 1 min, trigonelline 10 μmol/l 5 min;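 as to all read-outs here: uptake at 37 °C, read by liquid scintillation counting or LC-ESI-MS/MS, carrier-mediated part as induced-minus-uninduced expression difference corrected for baseline content, protein by BCA assay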
T2 construct: expressed in transfected cells
T2 sequence (Q5RLM2 1-535): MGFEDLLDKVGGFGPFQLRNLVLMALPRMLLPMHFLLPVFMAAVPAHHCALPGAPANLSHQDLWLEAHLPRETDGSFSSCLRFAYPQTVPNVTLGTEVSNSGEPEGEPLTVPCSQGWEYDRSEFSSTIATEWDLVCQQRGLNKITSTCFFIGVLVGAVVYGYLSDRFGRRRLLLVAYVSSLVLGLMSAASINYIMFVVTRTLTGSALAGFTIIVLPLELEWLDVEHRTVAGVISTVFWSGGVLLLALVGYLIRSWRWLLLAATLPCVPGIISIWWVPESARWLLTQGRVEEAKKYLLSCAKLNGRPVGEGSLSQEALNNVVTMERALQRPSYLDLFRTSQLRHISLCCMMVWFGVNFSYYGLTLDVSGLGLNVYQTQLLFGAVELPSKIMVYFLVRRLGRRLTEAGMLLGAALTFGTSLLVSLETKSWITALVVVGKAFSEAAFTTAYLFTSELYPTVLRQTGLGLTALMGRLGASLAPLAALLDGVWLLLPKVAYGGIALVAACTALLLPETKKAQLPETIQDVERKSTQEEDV
Method: as §1, §2

[1] = initial rate 1 min, 37° C., 10 μmol/l, LC-MS/MS, uptake buffer in the expression period

| uptake after preloading with orotic acid (factor f) (OAT2r) | factor of uptake reduction on average (OAT2r; sodium chloride replaced by choline, lithium or potassium chloride, or magnesium and calcium omitted) | carrier-mediated clearance (OAT2h; [1]) | carrier-mediated clearance (OAT2r; [1]) | Compound | clearance (OAT2h; sodium-free buffer) | Vmax (OAT2h; saturation of OAT2h-mediated specific uptake, 1 min, sodium-free buffer) | Km (OAT2h; saturation of uptake, sodium-free buffer, measured as uptake) | clearance (OAT2r; sodium-free buffer) | clearance (OAT2r; standard uptake buffer) | clearance (OAT2h; uptake buffer) |
| --- | --- | --- | --- | --- | --- | --- | --- | --- | --- | --- |
| – | – | – | – | N[C@@H](CCC(=O)O)C(=O)O [glutamate] | 70±5 μl min-1 mg protein-1 | 36±4 nmol min-1 mg protein-1 | 1100 µM | 24±1 μl min-1 mg protein-1 | 35±3 μl min-1 mg protein-1 | – |
| 0.7 | 0.75 | – | – | O=C(O)c1cc(=O)[nH]c(=O)[nH]1 [orotic acid] | – | – | – | – | 106±4 μl min-1 mg protein-1 and 106 μl min-1 mg protein-1 | 46±1 μl min-1 mg protein-1 and 46 μl min-1 mg protein-1 |
| 0.7 | – | 121±5 μl min-1 mg protein-1 | 4.8±0.5 μl min-1 mg protein-1 | C[n+]1cccc(C(=O)[O-])c1 [trigonelline] | – | – | – | – | – | – |
